Entries after “also recorded” stand apart in the source; their conditions may differ. Square brackets hold non-standard residues; d marks the D form. Ends that are not written are not given here. Peptide text beside a SMILES is read from it.
Tests used:
[1] = Mass spectrometry analysis of Ringers solution from Ussing chambers during ex vivo recovery (degradation and fragment formation); format: in vitro ADME, pig; settings: for Fragment detected in Ringers solution during ex vivo recovery: Ussing chambers with ischemia-injured jejunum in presence of parent peptide (LA or A6), MS analysis, N = 4; for half-life: pig, tissue, pH 7.4, Ussing chamber Ringers solution, ex vivo recovery 240 minutes, LC-MS/MS, n = 4, read-out: Half-life in ischemic injured jejunum tissue
From the text: After 45-minutes of ischemia, the pigs were euthanized, and intestinal segments were collected. Non-ischemic control tissue was also collected at this time. Following tissue collection, the seromuscular layer was stripped from the mucosa while the tissue was bathed in oxygenated (95% O2, 5% CO2) Ringer’s solution (in mmol/L: 154 Na^+, 6.3 K^+, 137 Cl^-, and 24 HCO3^-; pH 7.4). The mucosa was subsequently mounted in 1.1-cm^2 aperture Ussing chambers, as described in previous studies. Tissues were bathed on both the mucosal and serosal sides with 10mL Ringer’s solution. The mucosal bathing solution contained 10mM mannitol while the serosal side was osmotically balanced with 10mM glucose. Bathing solutions were oxygenated (95% O2, 5% CO2) and circulated in water-jacketed reservoirs. The spontaneous potential difference (PD) was measured using Ringer-agar bridges connected to calomel electrodes, and the PD was short-circuited through Ag-AgCl electrodes using a voltage clamp that was corrected for fluid resistance. TER (Ω·cm^2) was calculated from the spontaneous PD and short-circuit current (Isc). If the spontaneous PD was between -1.0 and 1.0 mV, tissues were current clamped at ± 100 μA for 5-seconds, and the PD was recorded. Isc and PD were recorded at 15-minute intervals over a 4-hour experiment. After tissues were mounted on Ussing chambers, all tissues were allowed to acclimate for a period of 30-minutes to establish stable baseline measurements, after which experimental, single-dose treatments of LA, LA fragments (F1, F2, or F3) with or without LA, A6, or A6 with or without A6 fragments (A6F1 or A6F2) were added to the apical chamber. For the microdosing regimen of LA, multiple doses at various concentrations of LA were added initially after the 30-minute acclimation period and every 45-minutes following this initial dose. Tissues were monitored by measuring transepithelial resistance (TER) for 240 minutes. Samples of Ringers solution were collected at select timepoints and quenched with 5% trifluoroacetic acid (TFA) solution (in 80% acetonitrile (ACN): 20% DI water). […] Standardization of ischemic injury severity between intestinal loops was standardized using a similar method as previously described in another intestinal mucosal injury model. First, T = 0 TER values from separate studies utilizing juvenile porcine intestinal ischemic tissue across three years were averaged (24 Ω·cm^2), and the standard deviation of this dataset was calculated (11 Ω·cm^2). Tissues with a T = 0 TER value exceeding one standard deviation of the mean (i.e., < 13 or > 35 Ω·cm^2) were excluded from experiments and data analysis.

[2] = molecular target: T1, aminopeptidase M (Sus scrofa, UniProt P15145); settings: LA 0.2 mg/mL in SIF without pancreatin pH 6.5, 10 μM MgCl2, AM 0.66 unit/mL (porcine kidney), 37°C; UPLC-MS/MS; two separate runs
T1 sequence (P15145 1-963): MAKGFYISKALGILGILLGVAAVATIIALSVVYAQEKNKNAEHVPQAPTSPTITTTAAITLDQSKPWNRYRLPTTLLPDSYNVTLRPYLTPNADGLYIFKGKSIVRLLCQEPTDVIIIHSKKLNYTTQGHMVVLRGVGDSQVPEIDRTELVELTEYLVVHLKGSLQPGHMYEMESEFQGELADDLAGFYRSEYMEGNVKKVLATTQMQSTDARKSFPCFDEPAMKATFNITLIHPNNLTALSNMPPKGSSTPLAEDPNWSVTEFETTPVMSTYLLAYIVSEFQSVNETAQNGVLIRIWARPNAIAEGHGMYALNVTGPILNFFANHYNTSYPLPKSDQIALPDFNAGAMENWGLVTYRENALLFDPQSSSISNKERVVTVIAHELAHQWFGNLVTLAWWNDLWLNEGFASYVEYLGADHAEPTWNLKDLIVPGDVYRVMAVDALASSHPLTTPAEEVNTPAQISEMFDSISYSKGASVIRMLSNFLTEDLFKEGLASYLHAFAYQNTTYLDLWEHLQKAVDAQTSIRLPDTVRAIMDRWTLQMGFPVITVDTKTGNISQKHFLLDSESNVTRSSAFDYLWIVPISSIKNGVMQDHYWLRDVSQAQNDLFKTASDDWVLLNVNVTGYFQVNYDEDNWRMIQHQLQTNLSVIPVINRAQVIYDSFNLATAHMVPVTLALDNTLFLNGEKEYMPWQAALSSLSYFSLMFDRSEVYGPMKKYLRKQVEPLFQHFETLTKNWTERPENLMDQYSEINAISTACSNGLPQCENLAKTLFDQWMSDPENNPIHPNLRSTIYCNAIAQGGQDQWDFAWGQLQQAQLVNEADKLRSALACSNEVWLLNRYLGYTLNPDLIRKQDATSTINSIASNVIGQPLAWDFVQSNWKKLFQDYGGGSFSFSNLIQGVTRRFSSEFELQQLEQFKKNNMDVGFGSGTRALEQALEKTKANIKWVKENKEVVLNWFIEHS
Description: Aminopeptidase M (AM) degradation of LA in vitro was carried out as follows. LA solution (0.2 mg/mL) in simulated intestinal fluid (SIF) (without Pancreatin), USP XXII Formulation: Ricca Chemical) pH 6.5 containing MgCl2 (10 μM; catalyst support) was combined with AM (porcine kidney: Sigma) solution (final AM concentration is 0.66 unit/mL) in a vial. The combined mixture was incubated at 37°C in a shaker water bath, and samples for UPLC-MS analysis were collected at various timepoints quenched with 5% TFA solution (in 80% ACN: 20% DI water). Quenched samples were centrifuged at 13000xg for 5-minutes and the resulting supernatants were stored at -80°C for future MS analysis.
A simple and sensitive liquid chromatography/tandem mass spectrometric (LC-MS/MS) method was developed for the identification and quantification of LA and its digestive fragments in the enzyme digest solution and other matrices. Samples were prepared with simple ACN and TFA in water quenching of the enzyme activity and precipitation of protein(s). The supernatant was then diluted appropriately and analyzed directly using the UPLC-MS/MS method Chromatographic separations were achieved on a C18 reversed phase column using an ACN and TFA-water gradient. The detection was performed in MS/MS mode via positive electrospray ionization (ESI+) interface.
A Waters Quattro Xevo TOD mass spectrometer equipped with an electrospray ionization source and a Waters Acquity™ UPLC BEH system (Waters, Milford, MA, USA) with a binary solvent and a sample manager was used in this study. The LC column (Waters, C18, 50×2.1 mm, 1.7 μm) was operated at 35°C and the autosampler was operated at ambient temperature. A binary mobile phase (mobile phase A and mobile phase B) with a linear solvent gradient system was used for the chromatographic separations of larazotide and its digestive fragments. Mobile phase A, 0.02% TFA in water and mobile phase B, 0.02% TFA in ACN. The UPLC-MS/MS method was qualified for the determination and identification of larazotide and the larazotide digestive fragments in the enzyme digest solution.

[3] = Ringers solution bathing ischemia-injured porcine jejunal mucosa mounted in Ussing chambers (ex vivo recovery); settings: Yorkshire crossbred pigs, up to 240 minutes
[4] = system: Aminopeptidase M (AM); assay: AM (porcine kidney: Sigma) in simulated intestinal fluid (SIF) (without Pancreatin) pH 6.5 containing MgCl2 (10 μM); settings: 37°C, up to 180 minutes

## VLVQP [F4]
[1]
  Fragment detected in Ringers solution during ex vivo recovery: detected

## VLVQPG [F2]
[1]
  Fragment detected in Ringers solution during ex vivo recovery: are formed
[2]
  Degradation by aminopeptidase M and presence of fragments: not being detected after 90 minutes

## CC(C)C[C@@H](NC(=O)[C@H](NC(=O)CN)C(C)C)C(=O)N[C@@H](C(=O)N[C@H](CCC(N)=O)C(=O)N1CCC[C@@H]1C(=O)NCC(=O)O)C(C)C [A6F1] (H-G[dV][dL][dV][dQ][dP]G-OH)
[1]
  Fragment detected in Ringers solution during ex vivo recovery: predominant fragment formed

## GGVLVQP [F3]
[1]
  Fragment detected in Ringers solution during ex vivo recovery: highest concentration out of all four fragments

## H-GGVLVQPG-OH
[3]
  cleaved bond: Gly-Val; also recorded: Pro-Gly, major
[4]
  cleaved bond: Gly-Val

## CC(C)C[C@@H](NC(=O)[C@H](NC(=O)CNC(=O)CN)C(C)C)C(=O)N[C@@H](C(=O)N[C@H](CCC(N)=O)C(=O)N1CCC[C@@H]1C(=O)NCC(=O)O)C(C)C [A6] (H-GG[dV][dL][dV][dQ][dP]G-OH)
[1]; ex vivo stability data, Ussing chamber
  Stability to brush-border enzyme degradation compared with LA: significantly more stable
[1]
  half-life: 78 min

## CC(C)C[C@@H](NC(=O)[C@H](N)C(C)C)C(=O)N[C@@H](C(=O)N[C@H](CCC(N)=O)C(=O)N1CCC[C@@H]1C(=O)O)C(C)C [A6F4] (H-[dV][dL][dV][dQ][dP]-OH)
[1]
  Fragment detected in Ringers solution during ex vivo recovery: formation

## CC(C)C[C@@H](NC(=O)[C@H](N)C(C)C)C(=O)N[C@@H](C(=O)N[C@H](CCC(N)=O)C(=O)N1CCC[C@@H]1C(=O)NCC(=O)O)C(C)C [A6F2] (H-[dV][dL][dV][dQ][dP]G-OH)
[1]
  Fragment detected in Ringers solution during ex vivo recovery: formation

## GGVLVQPG [LA, Larazotide acetate]
[1]
  half-life: 35 min
[2]
  Degradation by aminopeptidase M and presence of fragments: fragmented throughout the entirety of the experiment

## GVLVQPG [F1]
[1]
  Fragment detected in Ringers solution during ex vivo recovery: are formed
[2]
  Degradation by aminopeptidase M and presence of fragments: found in all samples collected during the run
